Earlier results on three substances are cited in patent US7662571B2, “Mitochondrial markers of ischemia” (Nourheart Inc., priority 2005, dated 2010).

No end group written: not given here.

The target in data set [1] is T1, FMLP receptor (68-kDa protein) (Homo sapiens, UniProt P21462).
T1 sequence (P21462 1-350): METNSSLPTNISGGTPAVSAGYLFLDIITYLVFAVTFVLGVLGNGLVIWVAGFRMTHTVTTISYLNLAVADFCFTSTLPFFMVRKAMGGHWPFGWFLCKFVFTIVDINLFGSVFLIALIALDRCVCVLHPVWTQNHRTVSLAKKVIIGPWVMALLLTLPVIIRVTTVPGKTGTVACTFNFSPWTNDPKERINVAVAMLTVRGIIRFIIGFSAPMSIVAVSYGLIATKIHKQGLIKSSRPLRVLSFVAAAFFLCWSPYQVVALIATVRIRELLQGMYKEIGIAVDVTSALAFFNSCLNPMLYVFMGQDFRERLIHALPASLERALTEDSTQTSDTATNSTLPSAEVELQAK

In a further data set the target is T2, FPR-like 2 (FPRL2) (Homo sapiens, UniProt P25089).
T2 sequence (P25089 1-353): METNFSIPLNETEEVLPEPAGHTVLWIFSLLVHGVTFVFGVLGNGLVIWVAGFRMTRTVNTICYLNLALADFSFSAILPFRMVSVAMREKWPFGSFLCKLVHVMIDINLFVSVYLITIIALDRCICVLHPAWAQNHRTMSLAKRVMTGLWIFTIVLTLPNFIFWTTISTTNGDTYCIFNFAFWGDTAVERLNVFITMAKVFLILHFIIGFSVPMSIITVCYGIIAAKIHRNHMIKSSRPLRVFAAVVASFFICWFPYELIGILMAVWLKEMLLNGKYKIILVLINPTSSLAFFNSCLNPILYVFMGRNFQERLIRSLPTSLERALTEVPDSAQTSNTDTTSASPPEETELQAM
As to conditions: FPRL2, low-affinity receptor.

As for “LVVYPWT [spinorphin, Leu-Val-Val-Tyr-Pro-Trp-Thr]”, the “chemotaxis of neutrophils caused by the low mwt chemoattractant” value in the data set with neutrophils is given as “inhibited”.
On to “RKAMGGHWPFGWFLCKFl (FMLP receptor derived peptide) [synthetic 17-aa peptide]”, for which the “inhibition of ligand binding to the 68-kDa protein” value in data set [1] is recorded as “strongest inhibitor of ligand binding”.
Take formyl-Met-Leu-Phe [fMLP]: on FPR-like 2 (FPRL2), the “concentration needed for receptor activation” value was “only activated by high (micromolar) concentrations”.
